Results as given in patent US12371428B2 (Exelixis, Inc., priority 2019, dated 2025).

Legend:
[1] = biological target: Mer (phospho-Mer, MERTK-transfected 293A cells) (Homo sapiens (Human), UniProt Q12866); assay: Mer autophosphorylation ELISA in transient transfected 293A cells (Example H); type: cell-based; settings: cellular activity; Mer autophosphorylation ELISA in transient transfected 293A cells
Method in brief: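 MERTK-transfected 293A; 8-pt dose, 1 h, serum-free, 0.3% DMSO. Cold lysis with orthovanadate and protease/phosphatase inhibitors. Phospho-Mer by DuoSet IC ELISA vs phospho-Mer standard. IC50: 4-PL fit; DMSO = 100%, reference inhibitor = 0%.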

[2] = biological target: KDR (phospho-KDR, VEGF165-stimulated HUVEC cells) (Homo sapiens (Human), UniProt P35968); assay: KDR autophosphorylation ELISA in HUVEC cells (Example G); type: cell-based; settings: cellular activity; KDR autophosphorylation ELISA in HUVEC cells
Sequence of KDR (phospho-KDR, VEGF165-stimulated HUVEC cells) (P35968 20-1356): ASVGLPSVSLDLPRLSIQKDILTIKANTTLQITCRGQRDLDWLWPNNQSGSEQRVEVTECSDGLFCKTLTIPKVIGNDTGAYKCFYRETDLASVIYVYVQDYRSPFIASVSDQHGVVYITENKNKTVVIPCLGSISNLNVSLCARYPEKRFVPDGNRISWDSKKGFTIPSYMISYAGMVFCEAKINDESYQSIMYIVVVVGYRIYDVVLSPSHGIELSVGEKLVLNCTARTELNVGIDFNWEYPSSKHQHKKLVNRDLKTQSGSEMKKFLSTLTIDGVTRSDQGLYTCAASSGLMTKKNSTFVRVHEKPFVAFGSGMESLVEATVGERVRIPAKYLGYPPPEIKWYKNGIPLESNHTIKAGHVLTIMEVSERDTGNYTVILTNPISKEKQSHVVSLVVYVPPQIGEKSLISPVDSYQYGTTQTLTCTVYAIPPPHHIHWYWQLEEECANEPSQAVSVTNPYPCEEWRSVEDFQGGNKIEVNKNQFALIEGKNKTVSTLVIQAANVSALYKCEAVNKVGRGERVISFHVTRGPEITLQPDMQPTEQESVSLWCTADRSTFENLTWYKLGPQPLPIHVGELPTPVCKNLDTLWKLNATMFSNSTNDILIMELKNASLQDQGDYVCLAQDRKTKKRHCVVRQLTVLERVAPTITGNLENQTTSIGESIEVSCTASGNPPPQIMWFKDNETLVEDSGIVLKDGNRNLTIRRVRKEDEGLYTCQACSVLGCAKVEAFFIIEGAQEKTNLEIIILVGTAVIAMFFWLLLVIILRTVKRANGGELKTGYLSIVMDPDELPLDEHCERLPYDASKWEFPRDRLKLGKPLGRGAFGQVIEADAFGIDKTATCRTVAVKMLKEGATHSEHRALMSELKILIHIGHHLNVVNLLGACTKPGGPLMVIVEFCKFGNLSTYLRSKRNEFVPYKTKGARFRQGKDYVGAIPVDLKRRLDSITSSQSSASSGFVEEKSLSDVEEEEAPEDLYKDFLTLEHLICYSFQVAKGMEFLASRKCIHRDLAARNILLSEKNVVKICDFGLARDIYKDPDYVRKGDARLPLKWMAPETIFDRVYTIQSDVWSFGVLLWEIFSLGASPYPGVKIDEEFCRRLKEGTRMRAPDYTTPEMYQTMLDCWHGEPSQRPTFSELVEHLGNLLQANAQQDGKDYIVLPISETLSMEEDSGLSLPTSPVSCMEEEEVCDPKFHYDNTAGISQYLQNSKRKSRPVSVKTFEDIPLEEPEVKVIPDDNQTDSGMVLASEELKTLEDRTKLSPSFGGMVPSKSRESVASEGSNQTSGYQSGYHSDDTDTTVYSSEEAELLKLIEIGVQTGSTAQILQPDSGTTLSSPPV
Method in brief: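 Inhibition of VEGF165-driven KDR autophosphorylation is measured in primary human umbilical vein endothelial cells after 24 h serum deprivation. Compound preincubation lasts 1 h before a 5-minute challenge with 100 ng/mL ligand, and phosphorylated receptor is then measured by ELISA in the lysates.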

Sequence of Mer (phospho-Mer, MERTK-transfected 293A cells) (Q12866 21-999): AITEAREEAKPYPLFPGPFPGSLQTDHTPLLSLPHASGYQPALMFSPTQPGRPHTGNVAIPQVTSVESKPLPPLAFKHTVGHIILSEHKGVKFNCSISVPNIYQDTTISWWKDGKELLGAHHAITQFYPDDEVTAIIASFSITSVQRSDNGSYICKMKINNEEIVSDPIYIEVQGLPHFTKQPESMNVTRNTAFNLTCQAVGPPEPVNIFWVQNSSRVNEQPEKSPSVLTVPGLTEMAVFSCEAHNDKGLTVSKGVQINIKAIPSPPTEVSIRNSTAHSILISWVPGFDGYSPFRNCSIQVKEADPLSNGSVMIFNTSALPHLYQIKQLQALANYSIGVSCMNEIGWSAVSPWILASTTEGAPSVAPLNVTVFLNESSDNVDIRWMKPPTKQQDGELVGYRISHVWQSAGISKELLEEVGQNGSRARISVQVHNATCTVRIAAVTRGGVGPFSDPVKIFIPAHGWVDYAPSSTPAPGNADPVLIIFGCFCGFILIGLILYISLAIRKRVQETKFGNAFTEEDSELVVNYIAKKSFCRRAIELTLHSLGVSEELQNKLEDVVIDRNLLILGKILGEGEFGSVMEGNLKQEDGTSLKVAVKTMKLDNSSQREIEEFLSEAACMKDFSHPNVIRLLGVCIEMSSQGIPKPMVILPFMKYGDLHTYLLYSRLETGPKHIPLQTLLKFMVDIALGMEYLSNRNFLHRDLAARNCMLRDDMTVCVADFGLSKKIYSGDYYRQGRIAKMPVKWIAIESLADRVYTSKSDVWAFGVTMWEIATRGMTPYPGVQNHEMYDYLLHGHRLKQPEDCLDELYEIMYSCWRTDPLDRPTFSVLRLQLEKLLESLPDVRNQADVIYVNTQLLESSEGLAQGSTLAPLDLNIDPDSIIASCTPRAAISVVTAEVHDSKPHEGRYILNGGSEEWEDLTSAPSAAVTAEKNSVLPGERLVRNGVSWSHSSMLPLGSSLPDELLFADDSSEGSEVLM

IC50 [1]	IC50 [2]	Compound
< 0.1 µM	< 0.1 µM	COc1cc2nccc(Oc3ccc(NC(=O)c4cnc(C)c(-c5ccc(F)cc5C)c4O)cc3)c2nc1OC(C)C [Compound 414, 5-(4-fluoro-2-methylphenyl)-4-hydroxy-N-[4-[(7-methoxy-6-propan-2-yloxy-1,5-naphthyridin-4-yl)oxy]phenyl]-6-methylpyridine-3-carboxamide]
< 0.1 µM	< 0.1 µM	COc1cc2nccc(Oc3ccc(NC(=O)c4cnc(C)c(-c5ccc(F)cc5C)c4O)cc3F)c2nc1OC [Compound 69, N-[4-[(6,7-Dimethoxy-1,5-naphthyridin-4-yl)oxy]-3-fluorophenyl]-5-(4-fluoro-2-methylphenyl)-4-hydroxy-6-methylpyridine-3-carboxamide]
< 0.1 µM	< 0.1 µM	Cc1cc2nccc(Oc3ccc(NC(=O)c4cnc(C)c(-c5ccc(F)cc5)c4O)cc3F)c2nc1F [Compound 426, N-[3-fluoro-4-[(6-fluoro-7-methyl-1,5-naphthyridin-4-yl)oxy]phenyl]-5-(4-fluorophenyl)-4-hydroxy-6-methylpyridine-3-carboxamide]

The remaining lines, values behind:

Compound	IC50 [1]	IC50 [2]
COc1cc2nccc(Oc3ccc(NC(=O)c4c(C)n(C)cc(-c5ccc(F)cc5)c4=O)cc3F)c2nc1OC [Compound 81, N-[4-[(6,7-Dimethoxy-1,5-naphthyridin-4-yl)oxy]-3-fluorophenyl]-5-(4-fluorophenyl)-1,2-dimethyl-4-oxopyridine-3-carboxamide]	< 0.1 µM	< 0.1 µM
COc1cc2nccc(Oc3ccc(NC(=O)c4cn(C)c(CF)c(-c5ccc(F)cc5)c4=O)cc3F)c2nc1OC [Compound 73, N-[4-[(6,7-Dimethoxy-1,5-naphthyridin-4-yl)oxy]-3-fluorophenyl]-6-(fluoromethyl)-5-(4-fluorophenyl)-1-methyl-4-oxopyridine-3-carboxamide]	< 0.1 µM	< 0.1 µM
COc1cc2nccc(Oc3ncc(NC(=O)c4cn(-c5cnn(C)c5)cc(-c5ccc(F)cc5)c4=O)cc3F)c2cc1OC [Compound 401, N-[6-(6,7-dimethoxyquinolin-4-yl)oxy-5-fluoropyridin-3-yl]-5-(4-fluorophenyl)-1-(1-methylpyrazol-4-yl)-4-oxopyridine-3-carboxamide]	< 0.1 µM	> 0.3 µM
CCn1cc(C(=O)Nc2ccc(Oc3ccnc4cc(O)cnc34)c(F)c2)c(=O)c(-c2ccc(F)cc2)c1C [Compound 410, 1-ethyl-N-[3-fluoro-4-[(7-hydroxy-1,5-naphthyridin-4-yl)oxy]phenyl]-5-(4-fluorophenyl)-6-methyl-4-oxopyridine-3-carboxamide]	0.1 to 0.3 µM	> 0.3 µM
COc1cc2nccc(Oc3ccc(NC(=O)c4cn(-c5cn[nH]c5)cc(-c5ccc(F)cc5)c4=O)cc3F)c2nc1OC [Compound 62, N-[4-[(6,7-Dimethoxy-1,5-naphthyridin-4-yl)oxy]-3-fluorophenyl]-5-(4-fluorophenyl)-4-oxo-1-(1H-pyrazol-4-yl)pyridine-3-carboxamide]	< 0.1 µM	> 0.3 µM
COc1cc2nccc(Oc3ccc(NC(=O)c4cn(CC(F)(F)F)c(C)c(-c5ccc(F)cc5)c4=O)cc3F)c2nc1OC [Compound 74, N-[4-[(6,7-Dimethoxy-1,5-naphthyridin-4-yl)oxy]-3-fluorophenyl]-5-(4-fluorophenyl)-6-methyl-4-oxo-1-(2,2,2-trifluoroethyl)pyridine-3-carboxamide]	< 0.1 µM	0.1 to 0.3 µM
COc1ccc2nccc(Oc3ccc(NC(=O)c4cn(C5CC5)c(C)c(-c5ccc(F)cc5)c4=O)cc3F)c2n1 [Compound 435, 1-cyclopropyl-N-[3-fluoro-4-[(6-methoxy-1,5-naphthyridin-4-yl)oxy]phenyl]-5-(4-fluorophenyl)-6-methyl-4-oxopyridine-3-carboxamide]	< 0.1 µM	> 0.3 µM
COc1cnc2c(Oc3ccc(NC(=O)c4ncc(C)n(-c5ccc(F)cc5)c4=O)cc3F)ccnc2c1 [Compound 94, N-[3-Fluoro-4-[(7-methoxy-1,5-naphthyridin-4-yl)oxy]phenyl]-4-(4-fluorophenyl)-5-methyl-3-oxopyrazine-2-carboxamide]	< 0.1 µM	> 0.3 µM
